Assay results as given in PMC10178204, “Peptaibol Analogs Show Potent Antibacterial Activity against Multidrug Resistant Opportunistic Pathogens” (International Journal of Molecular Sciences, 2023).
In brackets after ≈: the same amount, converted by molar mass. Several values for one entry are separate records, joined by “and”; a condition that tells them apart may be missing. Equal entries are not always repeated. Non-standard residues stand in square brackets, D forms with d. Residues, ends and D or L forms follow the SMILES beside them. *: point of attachment. Leu(ol) = CC(C)C[C@H](N)CO; Octanoyl = CCCCCCCC(=O)*; Aib = CC(C)(N)C(=O)O

Experiments:
[1] = system: Acinetobacter baumannii ATCC 17978; settings: for MBC Aba / MIC Aba: MHB, 5 × 10^5 CFU/mL, 18 h, 35 °C, triplicate; for MIC against A. baumannii, in molar units: corresponding to 2 and 8 μg/mL
In short: (§1)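 Broth microdilution in Mueller–Hinton broth, run in triplicate, inoculum 5 × 10^5 CFU/mL per CLSI M07-A10; MIC and MBC both determined. Peptides dissolved in DMSO at 25 mg/mL as stock.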

[2] = system: Bacillus subtilis ATCC 6633; settings: MHB, 5 × 10^5 CFU/mL, 18 h, 35 °C, triplicate
In short: as §1

[3] = system: Enterococcus faecalis ATCC 29212; settings: MHB, 5 × 10^5 CFU/mL, 18 h, 35 °C, triplicate
In short: as §1

Escherichia coli CCUGT = settings: MHB, 5 × 10^5 CFU/mL, 18 h, 35 °C, triplicate
In short: as §1

[4] = system: Klebsiella pneumoniae ATCC 13833; settings: MHB, 5 × 10^5 CFU/mL, 18 h, 35 °C, triplicate
In short: as §1

[5] = system: Pseudomonas aeruginosa ATCC 27853; settings: MHB, 5 × 10^5 CFU/mL, 18 h, 35 °C, triplicate
In short: as §1

[6] = system: Staphylococcus aureus ATCC 25923; settings: MHB, 5 × 10^5 CFU/mL, 18 h, 35 °C, triplicate
In short: as §1

[7] = system: Streptococcus pyogenes ATCC 12344; settings: MHB, 5 × 10^5 CFU/mL, 18 h, 35 °C, triplicate
In short: as §1

[8] = system: reference Gram-positive and Gram-negative strains; settings: lowest value over the eight reference strains
In short: as §1

[9] = system: A. baumannii SI-12 (OXA-23); settings: MHB, 5 × 10^5 CFU/mL, 18 h, 35 °C, triplicate
Procedure: (§2) The minimum inhibitory concentration (MIC) and the minimum bactericidal concentration (MBC) of the compounds were determined in triplicate using Mueller–Hinton broth (MHB). […] Therefore, we decided to dissolve all peptides in DMSO to a final concentration of 25 mg/mL, for consistency. The bacteria inoculum was 5 × 10^5 CFU/mL, as recommended by CLSI (Document M07-A10, 2015). […] Reference-type strains, including representatives of both Gram-positive bacteria (Bacillus subtilis ATCC 6633, Enterococcus faecalis ATCC 29212, Staphylococcus aureus ATCC 25923, the methicillin-resistant Staphylococcus aureus ATCC 43300 (MRSA), Streptococcus pyogenes ATCC 12344) and Gram-negative bacteria (Escherichia coli CCUGT, Klebsiella pneumoniae ATCC 13833, Pseudomonas aeruginosa ATCC 27853, and Acinetobacter baumannii ATCC 17978), were acquired from ATCC or CCUG culture collections. Other antibiotic-resistant clinical isolates were present in our collection at the University Teaching Hospital (Azienda Ospedaliero-Universitaria Senese ‘Santa Maria alle Scotte’) in Siena, Tuscany, Italy. Specifically, MDR carbapenem-hydrolyzing class D β-lactamase-producing Acinetobacter baumannii and metallo-β-lactamase-producing Pseudomonas aeruginosa were used in this study (Table 4).

[10] = system: A. baumannii SI-310 (OXA-24); settings: colistin-resistant isolate; MHB, 5 × 10^5 CFU/mL, 18 h, 35 °C, triplicate
Procedure: as §2

[11] = system: A. baumannii SI-648 (OXA-23, OXA-51-like); settings: MHB, 5 × 10^5 CFU/mL, 18 h, 35 °C, triplicate
Procedure: as §2

[12] = system: P. aeruginosa 101/1477 (IMP-1); settings: MHB, 5 × 10^5 CFU/mL, 18 h, 35 °C, triplicate
Procedure: as §2

[13] = system: P. aeruginosa 506/99 (VIM-2); settings: MHB, 5 × 10^5 CFU/mL, 18 h, 35 °C, triplicate
Procedure: as §2

[14] = system: P. aeruginosa VA-182/00 (VIM-2); settings: MHB, 5 × 10^5 CFU/mL, 18 h, 35 °C, triplicate
Procedure: as §2

[15] = system: P. aeruginosa VR-143/97 (VIM-1); settings: MHB, 5 × 10^5 CFU/mL, 18 h, 35 °C, triplicate
Procedure: as §2

[16] = system: S. aureus ATCC 43300 (MRSA); settings: MHB, 5 × 10^5 CFU/mL, 18 h, 35 °C, triplicate
Procedure: as §2

[17] = system: blood agar plate (Columbia CNA Agar); assay: Hemolysis on blood agar plate; settings: 50 μg spotted on blood agar, 35 ± 2 °C, 24 h
Procedure: Hemolysis zones were visually determined and measured. […] For two additional peptides (6 and 15), only a small hemolysis zone (diameter 4–5 mm) was visible, as compared to that of the positive control (Triton X-100, 13 mm).
Briefly, 2 μL of each peptide solution in DMSO (25 mg/mL), corresponding to 50 μg, was spotted on the surface of a blood agar plate (Columbia CNA Agar, Becton Dickinson Italia S.p.A., Florence, Italy). The plate was then incubated at 35 ± 2 °C for 24 h and visually inspected for the presence of hemolysis zones (see Figure S13, Supplementary Material). The experiment was performed in triplicate. Table 2 reports the average value of the diameter of hemolysis zones measured in each individual experiment. Triton X-100 was used as a positive control (diameter of the hemolysis zone: 13 mm), while DMSO was used as a negative control.
Figure S13. Implementation of the hemolysis test as described in Bechlars et al.. After spotting
2 µL (50 µg) of each compound at a random location on the blood agar plate and incubation at 35 ±
2 °C for 24 h, the plates were manually inspected for the presence of hemolysis zones. Triton X-100
and DMSO were used as the positive and negative controls, respectively. Results were interpreted
(1 picture or pasted object on this page, not shown here)

Row | Compound | MBC Aba [1] [µg/mL] | MIC Aba [1] [µg/mL] | MIC against A. baumannii, in molar units [1] [µM] | MIC Bsu [2] [µg/mL] | MBC Efa [3] | MIC Efa [3] [µg/mL] | MBC Eco (Escherichia coli CCUGT) [µg/mL] | MIC Eco (Escherichia coli CCUGT) [µg/mL] | MIC Kpn [4] [µg/mL] | MIC Pae [5] [µg/mL] | MIC Sau [6] [µg/mL] | MBC Spy [7] [µg/mL] | MIC Spy [7] [µg/mL] | lowest MIC [8] [µg/mL] | MBC A. baumannii SI-12 (OXA-23) [9] [µg/mL] | MIC A. baumannii SI-12 (OXA-23) [9] [µg/mL] | MBC A. baumannii SI-310 (OXA-24) [10] [µg/mL] | MIC A. baumannii SI-310 (OXA-24) [10] | MBC A. baumannii SI-648 (OXA-23, OXA-51-like) [11] [µg/mL] | MIC A. baumannii SI-648 (OXA-23, OXA-51-like) [11] | also measured
1 | CCCCCCCC(=O)NC(C)(C)C(=O)NCC(=O)N[C@@H](CC(C)C)C(=O)NC(C)(C)C(=O)N[C@@H](CCCCN)C(=O)N[C@@H](CCCCN)C(=O)N[C@@H](CC(C)C)C(=O)NC(C)(C)C(=O)NCC(=O)N[C@H](C(=O)N[C@H](CO)CC(C)C)[C@@H](C)CC [Peptide 4, 1-Oct-Aib-Gly-Leu-Aib-Lys-Lys-Leu-Aib-Gly-Ile-Lol] | 2 (≈ 1.65 µM) | 2 (≈ 1.65 µM) | 1.8 to 7.2 | 2 (≈ 1.65 µM) | 8 µg/mL and 4 µg/mL | 2 (≈ 1.65 µM) | > 16 | 16 (≈ 13.2 µM) | 16 (≈ 13.2 µM) | 8 (≈ 6.62 µM) | 16 (≈ 13.2 µM) | 2 (≈ 1.65 µM) | 2 (≈ 1.65 µM) | 2 | 4 (≈ 3.31 µM) | 2 (≈ 1.65 µM) | 8 (≈ 6.62 µM) | 4 µg/mL (≈ 3.31 µM) | 4 (≈ 3.31 µM) | 4 μg/mL and 4/4 μg/mL | MBC Kpn [4]: 32 µg/mL (≈ 26.5 µM); MBC Pae [5]: 16 µg/mL (≈ 13.2 µM); MBC Sau [6]: 16 µg/mL (≈ 13.2 µM); MBC P. aeruginosa 101/1477 (IMP-1) [12]: 16 µg/mL (≈ 13.2 µM); MIC P. aeruginosa 101/1477 (IMP-1) [12]: 8 µg/mL (≈ 6.62 µM); MBC P. aeruginosa 506/99 (VIM-2) [13]: 16 µg/mL (≈ 13.2 µM); MIC P. aeruginosa 506/99 (VIM-2) [13]: 16 µg/mL (≈ 13.2 µM); MBC P. aeruginosa VA-182/00 (VIM-2) [14]: 32 µg/mL (≈ 26.5 µM); MIC P. aeruginosa VA-182/00 (VIM-2) [14]: 16 µg/mL (≈ 13.2 µM); MBC P. aeruginosa VR-143/97 (VIM-1) [15]: 32 µg/mL (≈ 26.5 µM); MIC P. aeruginosa VR-143/97 (VIM-1) [15]: 16 µg/mL (≈ 13.2 µM); MBC S. aureus ATCC 43300 (MRSA) [16]: 8 µg/mL (≈ 6.62 µM); MIC S. aureus ATCC 43300 (MRSA) [16]: 4 µg/mL (≈ 3.31 µM); Hemolytic activity (in words) [17]: non-hemolytic
2 | CCCCCCCC(=O)NC(C)(C)C(=O)N[C@@H](CCCCN)C(=O)N[C@@H](CC(C)C)C(=O)NC(C)(C)C(=O)N[C@@H](CCCCN)C(=O)NCC(=O)N[C@@H](CC(C)C)C(=O)NC(C)(C)C(=O)NCC(=O)N[C@H](C(=O)N[C@H](CO)CC(C)C)[C@@H](C)CC [Peptide 1, 1-Oct-Aib-Lys-Leu-Aib-Lys-Gly-Leu-Aib-Gly-Ile-Lol] (Octanoyl-[Aib]KL[Aib]KGL[Aib]GI[Leu(ol)]) | 16 (≈ 13.2 µM) | 4 (≈ 3.31 µM) | 1.8 to 7.2 | 4 (≈ 3.31 µM) | 2 µg/mL (≈ 1.65 µM) | 2 (≈ 1.65 µM) | 32 (≈ 26.5 µM) | 32 (≈ 26.5 µM) | > 128 | 16 (≈ 13.2 µM) | 16 (≈ 13.2 µM) | 4 (≈ 3.31 µM) | 2 (≈ 1.65 µM) | 2 | 8 (≈ 6.62 µM) | 4 (≈ 3.31 µM) | 4 (≈ 3.31 µM) | 4 μg/mL and 4/4 μg/mL | 16 (≈ 13.2 µM) | 8 µg/mL (≈ 6.62 µM) | MBC Bsu [2]: 16 µg/mL (≈ 13.2 µM); MBC P. aeruginosa 101/1477 (IMP-1) [12]: 16 µg/mL (≈ 13.2 µM); MIC P. aeruginosa 101/1477 (IMP-1) [12]: 8 µg/mL (≈ 6.62 µM); MBC P. aeruginosa 506/99 (VIM-2) [13]: 32 µg/mL (≈ 26.5 µM); MIC P. aeruginosa 506/99 (VIM-2) [13]: 16 µg/mL (≈ 13.2 µM); MBC P. aeruginosa VA-182/00 (VIM-2) [14]: 16 µg/mL (≈ 13.2 µM); MIC P. aeruginosa VA-182/00 (VIM-2) [14]: 16 µg/mL (≈ 13.2 µM); MBC P. aeruginosa VR-143/97 (VIM-1) [15]: 32 µg/mL (≈ 26.5 µM); MIC P. aeruginosa VR-143/97 (VIM-1) [15]: 32 µg/mL (≈ 26.5 µM); MBC S. aureus ATCC 43300 (MRSA) [16]: 2 µg/mL (≈ 1.65 µM); MIC S. aureus ATCC 43300 (MRSA) [16]: 2 µg/mL (≈ 1.65 µM)
